Experimental findings from US6511989B2, “Acylaminoalkyl-substituted benzenesulfonamide derivatives, their preparation, their use and pharmaceutical preparations comprising them” (Aventis Pharma Deutschland GmbH, priority 2000, dated 2003) are described below.

One experiment has as its target hSUR1/hKir6.2 (Homo sapiens, UniProt Q09428+Q14654). Nature of the experiment: Action on hSUR1/hKir6.2-transfected CHO cells (membrane potential, DIBAC4 fluorescence, FLIPR). To be noted: 10 μM; CHO cells activated with diaxozide. In kind it is cell-based. From the text: Action on hSUR1/hKir6.2-transfected CHO Cells (Hypoglycemic Action)
The target organ of these compounds is the […] of the pancreas where they block ATP-sensitive potassium channels and produce a release of the hypoglycemic hormone insulin by influencing the electrical potential of the cell membrane.
The extent of this depolarization of the cell membrane, which is caused by the compounds according to the invention, was investigated on CHO cells that were transfected with the cloned components of human pancreatic ATP-sensitive potassium channels, hSUR1, and hKir6.2, and activated by pretreatment with diaxozide, an opener of ATP-sensitive potassium channels. The potency of a compound with respect to the membrane potential of these transfected and activated CHO cells is a measure of the hypoglycemic potential of this compound.
On the day of measurement, the microtiter plates were washed three times with PBS (physiological buffer solution). In the last washing step, 90 μl remained in each well. The cells were then loaded with the fluorescent dye DIBAC4 (Molecular Probes, Portland, Oreg., USA) by addition of 90 μl of a 10-micromolar solution of DIBAC4 in PBS and of 90 μl of a 400 micromolar solution of diaxozide in PBS to each well. After an incubation time of 30 min at 37° C., the microtiter plates were then transferred to a fluorescent microtiter plate reader (FLIPR; Molecular Devices, Sunnyvale, Calif., USA). The cells were stimulated by means of an argon laser (Innova 90; Coherent, Santa Clara, Calif., USA) at a wavelength of 488 nm and the fluorescence emission was measured by means of a CCD camera. The measurement of the membrane potential began after 4 min by addition of 20 μl of a solution of the test compound or of the control solution to each well, the resulting fluorescence emission being measured every 20 seconds for a period of 20 min. The data shown are mean values of at least 4 experiments.

Experiment [1] relates to chloroform-induced ventricular fibrillation in the mouse. Nature of the experiment: Chloroform-induced ventricular fibrillation in the mouse. In kind it is in vivo. The conditions noted are these: 3 mg/kg i.p., 30 min before chloroform anesthesia; untreated control 100%. From the text: Chloroform-induced Ventricular Fibrillation in the Mouse (Action in the Case of Vagal Dysfunction)
Hypoactivity of the vagal nervous system leads to hyperactivity of the sympathetic nervous system. Damages to health that result from an inequilibrium of the autonomic nervous system when the dysfunction affects the heart include the weakening of the myocardial contractile force and fatal cardiac arrhythmias such as ventricular fibrillation. The action of the test compounds was investigated in the model of chloroform-induced ventricular fibrillation in the mouse (see J. W. Lawson, Antiarrhythmic activity of some isoquinoline derivatives determined by a rapid screening procedure in the mouse; J. Pharmacol. Exp. Ther. 160 (1968) 22).
The test compound was dissolved in a mixture of dimethyl sulfoxide (DMSO) and 10 percent sodium hydrogencarbonate solution and administered intraperitoneally (i.p.). The dose was 3 mg/kg. 30 min later, the mouse was anesthetized with chloroform in a beaker. As soon as respiratory arrest had occurred under deep anesthesia (toxic stage of anesthesia), the thorax of the animal was opened using a pair of scissors and the heartbeat was visually inspected. It can be determined here at a glance whether the heart is beating, fibrillating, or has stopped. […]

Sequence of hSUR1/hKir6.2 (Q09428 whole entry): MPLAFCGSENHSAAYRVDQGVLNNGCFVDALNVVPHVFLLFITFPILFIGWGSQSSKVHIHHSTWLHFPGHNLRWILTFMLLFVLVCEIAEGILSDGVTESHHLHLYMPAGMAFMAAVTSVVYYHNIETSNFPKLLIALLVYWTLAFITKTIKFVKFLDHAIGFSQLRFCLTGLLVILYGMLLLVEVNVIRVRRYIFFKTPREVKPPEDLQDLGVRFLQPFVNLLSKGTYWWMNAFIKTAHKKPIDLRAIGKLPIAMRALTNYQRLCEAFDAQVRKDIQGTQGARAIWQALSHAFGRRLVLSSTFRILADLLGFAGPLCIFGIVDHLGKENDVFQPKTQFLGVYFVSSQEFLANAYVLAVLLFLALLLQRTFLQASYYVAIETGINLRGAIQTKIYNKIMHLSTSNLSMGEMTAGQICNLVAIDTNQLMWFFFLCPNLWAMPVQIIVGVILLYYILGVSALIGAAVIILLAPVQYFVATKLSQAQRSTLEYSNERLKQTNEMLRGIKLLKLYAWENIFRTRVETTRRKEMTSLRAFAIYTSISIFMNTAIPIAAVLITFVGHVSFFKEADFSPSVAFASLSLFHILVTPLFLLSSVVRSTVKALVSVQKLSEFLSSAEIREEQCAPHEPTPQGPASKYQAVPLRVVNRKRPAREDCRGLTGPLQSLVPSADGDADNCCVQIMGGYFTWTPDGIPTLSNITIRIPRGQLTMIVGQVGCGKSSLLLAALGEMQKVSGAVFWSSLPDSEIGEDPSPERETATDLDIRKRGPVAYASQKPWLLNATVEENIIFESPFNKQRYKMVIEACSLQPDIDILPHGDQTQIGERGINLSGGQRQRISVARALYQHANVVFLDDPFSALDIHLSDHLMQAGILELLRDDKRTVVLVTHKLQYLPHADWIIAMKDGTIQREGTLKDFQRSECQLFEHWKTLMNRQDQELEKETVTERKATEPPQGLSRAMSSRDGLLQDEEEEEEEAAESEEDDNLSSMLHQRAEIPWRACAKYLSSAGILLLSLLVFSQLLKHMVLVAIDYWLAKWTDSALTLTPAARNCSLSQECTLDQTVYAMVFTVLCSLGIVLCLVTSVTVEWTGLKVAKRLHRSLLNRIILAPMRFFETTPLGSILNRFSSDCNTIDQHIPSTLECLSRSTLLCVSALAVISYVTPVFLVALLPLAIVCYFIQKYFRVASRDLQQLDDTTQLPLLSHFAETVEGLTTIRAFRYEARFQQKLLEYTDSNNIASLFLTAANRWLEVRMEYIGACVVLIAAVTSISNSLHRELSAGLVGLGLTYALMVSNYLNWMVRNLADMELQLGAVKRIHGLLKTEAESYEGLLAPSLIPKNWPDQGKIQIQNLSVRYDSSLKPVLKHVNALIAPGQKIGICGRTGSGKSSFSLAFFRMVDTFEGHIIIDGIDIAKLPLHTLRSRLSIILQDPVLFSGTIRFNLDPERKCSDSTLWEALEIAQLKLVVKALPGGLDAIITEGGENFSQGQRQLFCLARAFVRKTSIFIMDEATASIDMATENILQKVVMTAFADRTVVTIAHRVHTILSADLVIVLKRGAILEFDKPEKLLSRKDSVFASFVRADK
Sequence of hSUR1/hKir6.2 (Q14654 whole entry): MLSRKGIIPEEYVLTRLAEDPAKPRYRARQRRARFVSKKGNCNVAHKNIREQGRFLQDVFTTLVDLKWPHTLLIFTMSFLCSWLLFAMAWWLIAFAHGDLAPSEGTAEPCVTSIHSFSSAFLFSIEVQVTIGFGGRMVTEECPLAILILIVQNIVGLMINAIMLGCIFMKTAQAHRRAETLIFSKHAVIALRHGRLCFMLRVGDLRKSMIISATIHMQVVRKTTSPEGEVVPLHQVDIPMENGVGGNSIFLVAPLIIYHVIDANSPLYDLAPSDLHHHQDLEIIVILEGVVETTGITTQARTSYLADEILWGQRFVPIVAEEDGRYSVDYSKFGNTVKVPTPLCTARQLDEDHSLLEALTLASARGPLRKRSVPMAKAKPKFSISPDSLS

Regarding `COc1ccc(CCNC(=O)C2=CCCCC2)cc1S(=O)(=O)NC(=S)NC(C)C` [Example 20, 1-[5-(2-(1-Cyclohex-1-enecarboxamido)ethyl)-2-methoxyphenylsulfonyl]-3-isopropyl-thiourea], at hSUR1/hKir6.2, the “Blockade hSUR1/hKir6.2” value came to 38.3%. In addition, the “Fibrillation ratio (in %)” value in experiment [1] was 70%.
